Legend:
Cavia porcellus [1] = species on record: Cavia porcellus; assay: Inhibition of the twitch response of the guinea pig longitudinal muscle strip to electrical stimulation in a concentration-dependent manner; format: functional, Muscle tissue
Cavia porcellus [2] = species on record: Cavia porcellus; assay: Inhibition of the twitch response of the guinea pig ileal strip to electrical stimulation; format: functional; conditions: read-out: pA2 (converted)

SMILES	pD2 (Cavia porcellus [1])	Kb (Cavia porcellus [2])
CC(=O)Oc1ccc2c3c1O[C@H]1[C@H](SC(C)=O)C=CC4[C@@H](C2)N(CC2CC2)CC[C@@]341 (some centres undefined)	8.4 M	
CN1CC[C@]23c4c5ccc(O)c4O[C@H]2[C@@H](O)C=C[C@H]3[C@H]1C5 [MORPHINE]	7.23 M	
CC(=O)Oc1ccc2c3c1O[C@H]1[C@H](SC(C)=O)CCC4[C@@H](C2=O)N(CC2CC2)CC[C@@]341 (some centres undefined)	9.03 M	0.0355 nM

Reference: ChEMBL document CHEMBL1151586, “Design and synthesis of 10-oxo derivative of N-cyclopropylmethyl ()-6-acetylthiodihydro-normorphine, a potentially -selective opioid receptor ligand” (Bioorg Med Chem Lett, 1995)
